Laboratory results as given in patent publication US11400106B2, “Methods for inhibiting microbe growth” (priority 2018, dated 2022).
Read-outs that look alike come from different tables or passages of the source.

Legend:
S. aureus = test: microbe, parasite or virus in culture; conditions: for MIC: Staphylococcus aureus, 18 h, read-out: MIC, S. aureus, MHB−; for effect of 25 mM sodium bicarbonate on antibacterial activity: result in words
Description: (§1) In the following experiments, bacterial cells were cultured in 96-well microtiter plates in cation-adjusted Mueller-Hinton Broth (MHB) for 18 h at 37° C. The main strains used were E. coli (K-12 BW25113) (placed in stationary incubator) and S. aureus (Newman Strain) (incubated at 250 r.p.m). Knockout strains (ΔtolcC and ΔychM) were used from the Keio knockout collection (Baba et al., Construction of Escherichia coli K-12 in-frame, single-gene knockout mutants: the Keio collection. Mol Syst Biol 2, 2006 0008, doi:10.1038/msb4100050 (2006)). For MIC determination and checkerboard analyses, Clinical & Laboratory Standards Institute (CLSI) protocol was used. […] DiSC3 loading of S. aureus cells was performed as previously described (Farha et al., Collapsing the proton motive force to identify synergistic combinations against Staphylococcus aureus. Chemistry & biology 20, 1168-1178, doi:10.1016/j.chembiol.2013.07.006 (2013)). CCCP concentration of 20 μM was used. pH adjustments were made by addition of HCl or NaOH. INT assay and ATP bioluminescence assays were performed as previously described (Farha et al., Collapsing the proton motive force to identify synergistic combinations against Staphylococcus aureus. Chemistry & biology 20, 1168-1178, doi:10.1016/j.chembiol.2013.07.006 (2013)). For chemical-genomic studies, the Keio library was grown overnight in cation-adjusted MHB broth, in 384-well plates. From these, treatment plates (25 mM sodium bicarbonate, or a sterile water control) were inoculated and grown for 15 hours at 37° C., in a stationary incubator. Data was normalized according to Mangat et al (Mangat et al., Rank ordering plate data facilitates data visualization and normalization in high-throughput screening. J Biomol Screen 19, 1314-1320, doi:10.1177/1087057114534298 (2014)), with gene products and GO terms mined from EcoCyc. The GFP promoter library (Keseler et al., EcoCyc: fusing model organism databases with systems biology. Nucleic Acids Res 41, D605-612, doi:10.1093/nar/gks1027 (2013)) was grown for 18 hours at ambient temperature with the same inoculation strategy as with the Keio collection. The analysis pipeline of Zaslaver et al (Zaslaver et al., A comprehensive library of fluorescent transcriptional reporters for Escherichia coli. Nat Methods 3, 623-628, doi:10.1038/nmeth895 (2006)) was used to generate maps of promoter activity, from which lists of promoters with increased or decreased activity were compiled.
(§2) Fold enhancement in MICs in the media supplemented with sodium bicarbonate is represented by a positive fold, whereas suppression of activity is represented by a negative fold.
(§3) The effect of sodium bicarbonate on the activity of additional antibacterial agents was investigated. Clinical isolates of various bacteria were obtained from the ATCC and the IHMA.
(§4) The effect of sodium bicarbonate on the activity of cationic antiseptic agents was investigated. Clinical isolates of various bacteria were obtained from the ATCC and the IHMA.

E. coli = test: microbe, parasite or virus in culture; format: cell-based, Escherichia coli; conditions: for MIC: Escherichia coli, 18 h, read-out: MIC, E. coli, MHB−
Description: as §1, §2, §3, §4

[1] = antibiotic agents, MHB in the absence of sodium bicarbonate
[2] = antibiotic agents, MHB in the presence of 25 mM sodium bicarbonate
[3] = antibiotic agents, fold shift in MIC, MHB− vs MHB+
[4] = MHB in the absence of sodium bicarbonate
[5] = MHB in the presence of 25 mM sodium bicarbonate
[6] = antiseptic agents, MHB in the absence of sodium bicarbonate
[7] = antiseptic agents, MHB in the presence of 25 mM sodium bicarbonate
[8] = antiseptic agents, fold shift in MIC

Row | Compound | MIC, S. aureus, MHB+ (S. aureus) | MIC (S. aureus) [µg/mL] | MIC, E. coli, MHB+ (E. coli) | MIC (E. coli; [1]) [µg/mL] | also measured
1 | CC1(C)S[C@@H]2[C@H](NC(=O)[C@H](C(=O)O)c3ccsc3)C(=O)N2[C@H]1C(=O)O [Ticarcillin] | 32 μg of antimicrobial agent/mL of buffer | 8 | 64 μg of antimicrobial agent/mL of buffer | 32 | 
2 | CC(C)C[C@H](NC(=O)[C@H](CCCNC(=N)N)NC(=O)CNC(=O)CNC(=O)[C@@H](N)CCCNC(=N)N)C(=O)N[C@H]1CSSC[C@@H](C(=O)N[C@H](C(=O)NCC(=O)N[C@@H](CCCNC(=N)N)C(N)=O)C(C)C)NC(=O)[C@H](C(C)C)NC(=O)[C@@H]2CSSC[C@H](NC(=O)[C@H](Cc3ccc(O)cc3)NC1=O)C(=O)N[C@@H](CCCNC(=N)N)C(=O)N[C@@H](CCCNC(=N)N)C(=O)N[C@@H](CCCNC(=N)N)C(=O)N[C@@H](Cc1ccccc1)C(=O)N2 [Protegrin] |  |  |  |  | enhancement of antimicrobial activity in the presence of bicarbonate (S. aureus; S. aureus, 25 mM sodium bicarbonate): 8 fold; enhancement of antimicrobial activity in the presence of bicarbonate (E. coli): 8 fold
3 | CCOc1ccc2ccccc2c1C(=O)N[C@@H]1C(=O)N2[C@@H]1SC(C)(C)[C@@H]2C(=O)O [Nafcillin] | 1 μg of antimicrobial agent/mL of buffer | 0.25 | 32 μg of antimicrobial agent/mL of buffer | 16 | 
4 | [H]/N=C(\N/C(=N/[H])NCCCCCCNC(=N)NC(=N)Nc1ccc(Cl)cc1)Nc1ccc(Cl)cc1 [Chlorhexidine] | 0.0625 μg of antimicrobial agent/mL of buffer |  | 0.125 μg of antimicrobial agent/mL of buffer |  | MIC, S. aureus, MHB (S. aureus): 0.5 μg of antimicrobial agent/mL of buffer; MIC, E. coli, MHB (E. coli): 0.5 μg of antimicrobial agent/mL of buffer
5 | Gramicidin |  |  |  |  | MIC, S. aureus, MHB− (S. aureus; [1]): 1 μg of antimicrobial agent/mL of buffer; MIC, S. aureus, MHB+ (S. aureus; [2]): 0.25 μg of antimicrobial agent/mL of buffer; Fold, S. aureus (S. aureus; [3]): 4; MIC, E. coli, MHB− (E. coli; [1]): >128 μg of antimicrobial agent/mL of buffer; MIC, E. coli, MHB+ (E. coli; [2]): >128 μg of antimicrobial agent/mL of buffer; Fold, E. coli (E. coli; [3]): 1
6 | CC(=O)NC[C@H]1CN(c2ccc(N3CCOCC3)c(F)c2)C(=O)O1 [Linezolid] | 0.625 | 0.625 |  |  | effect of 25 mM sodium bicarbonate on antibacterial activity (S. aureus; S. aureus): remained largely unchanged; effect of 25 mM sodium bicarbonate on antibacterial activity (E. coli): remained largely unchanged; MIC (E. coli; [4]): 256 µg/mL
7 | Polymyxin B |  |  |  |  | Fold, S. aureus (S. aureus): 8; MIC, S. aureus, MHB− (S. aureus; [4]): 256; MIC, S. aureus, MHB+ (S. aureus; [5]): 32; effect of 25 mM sodium bicarbonate on antibacterial activity (S. aureus; S. aureus): enhanced; Fold, E. coli (E. coli): −2
8 | CN[C@H](CC(C)C)C(=O)N[C@H]1C(=O)N[C@@H](CC(N)=O)C(=O)N[C@H]2C(=O)N[C@H]3C(=O)N[C@H](C(=O)N[C@H](C(=O)O)c4cc(O)cc(O)c4-c4cc3ccc4O)[C@H](O)c3ccc(c(Cl)c3)Oc3cc2cc(c3O[C@@H]2O[C@H](CO)[C@@H](O)[C@H](O)[C@H]2O[C@H]2C[C@](C)(N)[C@H](O)[C@H](C)O2)Oc2ccc(cc2Cl)[C@H]1O [Vancomycin] |  | 1 |  |  | MIC, S. aureus, MHB+ (S. aureus; [5]): 4; MIC (E. coli): 256 µg/mL; MIC, E. coli, MHB+ (E. coli; [5]): 256
9 | Cc1onc(-c2ccccc2Cl)c1C(=O)N[C@@H]1C(=O)N2[C@@H]1SC(C)(C)[C@@H]2C(=O)O [Cloxacillin] | 0.5 | 0.031 |  |  | MIC (E. coli; [4]): 256 µg/mL
10 | C=C[C@]1(C)C[C@@H](OC(=O)CO)[C@]2(C)[C@H](C)CC[C@]3(CCC(=O)[C@H]32)[C@@H](C)[C@@H]1O [Pleuromutilin] | 1 μg of antimicrobial agent/mL of buffer | 1 | >128 μg of antimicrobial agent/mL of buffer | > 128 | 
11 | CC1(C)S[C@@H]2[C@H](NC(=O)[C@H](N)c3ccccc3)C(=O)N2[C@H]1C(=O)O [Ampicillin] | 8 | 1 |  |  | MIC (E. coli; [4]): 16 µg/mL
12 | N[C@@H](C(=O)N[C@@H]1C(=O)N2C(C(=O)O)=C(Cl)CS[C@H]12)c1ccccc1 [Cefaclor] | 8 μg of antimicrobial agent/mL of buffer | 2 | 4 μg of antimicrobial agent/mL of buffer | 4 | 
13 | CC[C@H]1OC(=O)[C@H](C)C(=O)[C@H](C)[C@@H](O[C@@H]2O[C@H](C)C[C@H](N(C)C)[C@H]2O)[C@](C)(OC)C[C@@H](C)C(=O)[C@H](C)[C@H]2N(CCCCn3cnc(-c4cccnc4)c3)C(=O)O[C@]12C [Telithromycin] | 0.5 μg of antimicrobial agent/mL of buffer | 4 | 16 μg of antimicrobial agent/mL of buffer | > 128 | 
14 | O=C(N[C@H](CO)[C@H](O)c1ccc([N+](=O)[O-])cc1)C(Cl)Cl [Chloramphenicol] | 8 | 8 |  |  | effect of 25 mM sodium bicarbonate on antibacterial activity (S. aureus; S. aureus): remained largely unchanged; effect of 25 mM sodium bicarbonate on antibacterial activity (E. coli): remained largely unchanged; MIC (E. coli; [4]): 8 µg/mL
15 | C=C(NC(=O)C(=C)NC(=O)c1csc(C2=N[C@@H]3c4csc(n4)[C@H]4NC(=O)c5csc(n5)[C@H]([C@](C)(O)[C@@H](C)O)NC(=O)[C@H]5CSC(=N5)/C(=C/C)NC(=O)[C@H]([C@@H](C)O)NC(=O)c5csc(n5)[C@]3(CC2)NC(=O)[C@H](C)NC(=O)C(=C)NC(=O)[C@H](C)NC(=O)[C@H]([C@@H](C)CC)N[C@@H]2C=Cc3c([C@H](C)O)cc(nc3[C@H]2O)C(=O)O[C@@H]4C)n1)C(N)=O [Thiostrepton] |  | 0.5 |  |  | MIC, S. aureus, MHB+ (S. aureus; [2]): 0.12 μg of antimicrobial agent/mL of buffer; MIC (E. coli): > 128 µg/mL; MIC, E. coli, MHB+ (E. coli; [2]): >128 μg of antimicrobial agent/mL of buffer
16 | CCC[C@@H]1C[C@@H](C(=O)N[C@@H]([C@H]2O[C@H](SC)[C@H](O)[C@@H](O)[C@H]2O)[C@@H](C)O)N(C)C1 [Lincomycin] | 0.0625 μg of antimicrobial agent/mL of buffer | 0.25 | 32 μg of antimicrobial agent/mL of buffer | > 128 | 
17 | Polyvinylpyrrolidone iodine complex |  |  |  |  | MIC, S. aureus, MHB (S. aureus; [6]): >128 μg of antimicrobial agent/mL of buffer; MIC, S. aureus, MHB+ (S. aureus; [7]): >128 μg of antimicrobial agent/mL of buffer; Fold, S. aureus (S. aureus; [8]): 1; MIC, E. coli, MHB (E. coli; [6]): >128 μg of antimicrobial agent/mL of buffer; MIC, E. coli, MHB+ (E. coli; [7]): >128 μg of antimicrobial agent/mL of buffer; Fold, E. coli (E. coli; [8]): 1
18 | CO/N=C(\C(=O)N[C@@H]1C(=O)N2C(C(=O)O)=C(COC(C)=O)CS[C@H]12)c1csc(N)n1 [Cefotaxime] | 2 μg of antimicrobial agent/mL of buffer | 0.5 | 8 μg of antimicrobial agent/mL of buffer | 4 | 
19 | CC1CCc2c(N3CCC(O)CC3)c(F)cc3c(=O)c(C(=O)O)cn1c23 (stereo not shown) [Nadifloxacin] | 0.5 μg of antimicrobial agent/mL of buffer | 0.12 | 32 μg of antimicrobial agent/mL of buffer | 8 | 
20 | CCN1CCN(C(=O)N[C@@H](C(=O)N[C@@H]2C(=O)N3[C@@H]2SC(C)(C)[C@@H]3C(=O)O)c2ccccc2)C(=O)C1=O [Piperacillin] | 1 | 0.25 |  |  | MIC (E. coli; [4]): 2 µg/mL
21 | Benzalkonium chloride |  |  | 8 μg of antimicrobial agent/mL of buffer |  | MIC, S. aureus, MHB (S. aureus; [6]): 0.5 μg of antimicrobial agent/mL of buffer; MIC, S. aureus, MHB+ (S. aureus; [7]): 0.25 μg of antimicrobial agent/mL of buffer; Fold, S. aureus (S. aureus; [8]): 2; Fold, E. coli (E. coli): 4; MIC, E. coli, MHB (E. coli): 32 μg of antimicrobial agent/mL of buffer
22 | CO[C@H]1/C=C/O[C@@]2(C)Oc3c(C)c(O)c4c(O)c(c(/C=N/N5CCN(C)CC5)c(O)c4c3C2=O)NC(=O)/C(C)=C\C=C\[C@H](C)[C@H](O)[C@@H](C)[C@@H](O)[C@@H](C)[C@H](OC(C)=O)[C@@H]1C [Rifampicin] | 0.031 | 0.0078 |  |  | MIC (E. coli; [4]): 32 µg/mL
